For orientation: inhibition means the relative decrease from the control value, in per cent. For orientation: melting point means the temperature of the solid-liquid transition.

Molecules are shown by their SMILES.

One data set addresses cdk1/cyclinB (Homo sapiens, UniProt P06493). Nature of the data set: Cyclin dependent kinase 1 assay (cdk1/cyclinB), 32P incorporation, filter plate. To be noted: retinoblastoma substrate, 12 mM ATP, 25° C., 15 minutes; read-out: Inhibition of Cdks: IC50 Cdk1/B. Format: biochemical. Put shortly: (§1)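 Radiometric filter assay: 20 ng cdk1/B, cdk2/A or cdk2/E with 1 μg retinoblastoma substrate in 20 mM Tris pH 7.4, 50 mM NaCl, 1 mM DTT, 10 mM MgCl2, […] plus [32P]ATP. Started with ATP, 15 min at 25 °C, stopped and precipitated with TCA; 32P incorporation counted for IC50.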

A further data set addresses cdk2/cyclinE (Homo sapiens, UniProt P24941). The data set can be described thus: Cyclin dependent kinase 2 assay (cdk2/cyclinE), 32P incorporation, filter plate. Format: biochemical. The note with it: retinoblastoma substrate, 12 mM ATP, 25° C., 15 minutes; read-out: Inhibition of Cdks: IC50 Cdk2/E. Put shortly: as §1
For another data set, the target named is cdk4/cyclinD (Homo sapiens, UniProt P11802). Nature of the data set: Cyclin Dependent Kinase 4 (cdk-4) Assay, 32P incorporation, filter plate. Format: biochemical. The note with it: retinoblastoma substrate, 25 μM ATP, 25° C., 15 minutes; read-out: Inhibition of Cdks: IC50 Cdk4D. In outline:
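Filter-plate radiometric assay for IC50s: 20 ng cdk4 with 1 μg retinoblastoma substrate in 20 mM TRIS pH 7.4, 50 mM NaCl, 1 mM DTT, 10 mM MgCl2. Started with 25 μM ATP plus [32P]ATP and run 15 min at 25° C, then stopped with TCA. Precipitated substrate was washed and 32P incorporation counted.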

In data set [1] the target is T1, PDGF-β receptor tyrosine kinase (PDGFr) (Mus musculus, UniProt P05622).
T1 construct: amplify a fragment of DNA that codes for the intracellular tyrosine kinase domain; made in house; host or cells: SF9 insect cells (baculovirus); crude cell lysate used
T1 sequence (P05622 599-961 limits assumed): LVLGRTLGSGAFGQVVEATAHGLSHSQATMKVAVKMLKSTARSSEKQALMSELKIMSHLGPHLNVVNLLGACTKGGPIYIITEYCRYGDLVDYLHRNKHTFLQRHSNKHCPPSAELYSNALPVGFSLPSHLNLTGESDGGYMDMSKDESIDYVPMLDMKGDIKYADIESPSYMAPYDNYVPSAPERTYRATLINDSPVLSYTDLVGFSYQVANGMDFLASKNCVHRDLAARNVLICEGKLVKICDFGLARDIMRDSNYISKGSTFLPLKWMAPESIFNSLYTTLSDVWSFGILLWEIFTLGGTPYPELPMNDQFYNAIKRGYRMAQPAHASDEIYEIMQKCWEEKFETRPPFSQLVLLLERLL
The data set can be described thus: PDGF Receptor Tyrosine Kinase Assay. Format: biochemical. To be noted: glutamate-tyrosine co-polymer substrate; for inhibition at 50 µM: at 50 μM compound, read-out: Inhibition of Tyrosine Kinases: % Inhibition at 50 μM PDGFr; for IC50: read-out: Inhibition of Tyrosine Kinases: IC50 in parenthesis PDGFr. From the text:
(§2) PDGF and FGF Receptor Tyrosine Kinase Assays
(§3) Full-length cDNAs for the mouse PDGF-β and human FGF-1 (flg) receptor tyrosine kinases are obtained from J. Escobedo and prepared as described in J. Biol. Chem. 1991; 262:1482-1487. PCR primers are designed to amplify a fragment of DNA that codes for the intracellular tyrosine kinase domain. The fragment is inserted into a baculovirus vector, cotransfected with AcMNPV DNA, and the recombinant virus isolated. SF9 insect cells are infected with the virus to overexpress the protein, and the cell lysate is used for the assay. Assays are performed in 96-well plates (100 μL/incubation/well), and conditions are optimized to measure the incorporation of ^32P from γ^32P-ATP into a glutamate-tyrosine co-polymer substrate. Briefly, to each well is added 82.5 μL of incubation buffer containing 25 mM Hepes (pH 7.0), 150 mM NaCl, 0.1% Triton X-100, 0.2 mM PMSF, 0.2 mM Na3VO4, 10 mM MnCl2, and 750 μg/mL of Poly (4:1) glutamate-tyrosine followed by 2.5 μL of inhibitor and 5 μL of enzyme lysate (7.5 μg/μL FGF-TK or 6.0 μg/μL PDGF-TK) to initiate the reaction. Following a 10-minute incubation at 25° C. […] of γ^32P-ATP (0.4 μCi plus 50 μM ATP) is added to each well, and samples are incubated for an additional 10 minutes at 25° C. The reaction is terminated by the addition of 100 μL of 30% trichloroacetic acid (TCA) containing 20 mM sodium pyrophosphate and precipitation of material onto glass fiber mats (Wallac). Filters are washed 3 times with 15% TCA containing 100 mM sodium pyrophosphate, and the radioactivity retained on the filters counted in a Wallac 1250 Betaplate reader. Nonspecific activity is defined as radioactivity retained on the filters following incubation of samples with buffer alone (no enzyme). Specific enzymatic activity (enzyme plus buffer) is defined as total activity minus nonspecific activity.

Data set [2] concerns the target T2, FGF-1 (flg) receptor tyrosine kinase (FGFr) (Homo sapiens, UniProt P11362).
T2 construct: amplify a fragment of DNA that codes for the intracellular tyrosine kinase domain; made in house; host or cells: SF9 insect cells (baculovirus); crude cell lysate used
The data set can be described thus: FGF Receptor Tyrosine Kinase Assay. Format: biochemical. The note with it: glutamate-tyrosine co-polymer substrate; for inhibition at 50 µM: at 50 μM compound, read-out: Inhibition of Tyrosine Kinases: % Inhibition at 50 μM FGFr; for IC50: read-out: Inhibition of Tyrosine Kinases: IC50 in parenthesis FGFr.
Description: as §2, §3

Another data set deals with cdk2/cyclinA (Homo sapiens, UniProt P24941). Nature of the data set: Cyclin dependent kinase 2 assay (cdk2/cyclinA), 32P incorporation, filter plate. Format: biochemical. To be noted: retinoblastoma substrate, 12 mM ATP, 25° C., 15 minutes; read-out: Inhibition of Cdks: IC50 Cdk2/A. In outline:
as §1

T2 sequence (P11362 478-767 limits assumed): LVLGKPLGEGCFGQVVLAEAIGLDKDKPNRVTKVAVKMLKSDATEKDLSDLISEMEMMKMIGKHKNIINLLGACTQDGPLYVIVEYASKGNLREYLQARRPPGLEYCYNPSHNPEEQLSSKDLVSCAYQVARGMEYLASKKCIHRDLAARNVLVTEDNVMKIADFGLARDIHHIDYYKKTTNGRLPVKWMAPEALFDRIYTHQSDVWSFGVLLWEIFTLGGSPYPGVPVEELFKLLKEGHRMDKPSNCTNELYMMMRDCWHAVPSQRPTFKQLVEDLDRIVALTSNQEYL
cdk1/cyclinB, sequence (P06493 whole entry, species assumed): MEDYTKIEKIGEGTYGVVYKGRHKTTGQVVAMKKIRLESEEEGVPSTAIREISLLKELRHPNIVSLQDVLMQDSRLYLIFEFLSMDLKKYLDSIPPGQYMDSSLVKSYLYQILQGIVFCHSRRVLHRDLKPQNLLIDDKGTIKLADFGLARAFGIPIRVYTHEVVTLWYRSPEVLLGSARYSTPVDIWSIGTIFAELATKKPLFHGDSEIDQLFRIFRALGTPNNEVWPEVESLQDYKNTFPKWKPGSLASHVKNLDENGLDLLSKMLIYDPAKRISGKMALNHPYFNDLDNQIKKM
cdk1/cyclinB, sequence (P14635 whole entry partner, species assumed): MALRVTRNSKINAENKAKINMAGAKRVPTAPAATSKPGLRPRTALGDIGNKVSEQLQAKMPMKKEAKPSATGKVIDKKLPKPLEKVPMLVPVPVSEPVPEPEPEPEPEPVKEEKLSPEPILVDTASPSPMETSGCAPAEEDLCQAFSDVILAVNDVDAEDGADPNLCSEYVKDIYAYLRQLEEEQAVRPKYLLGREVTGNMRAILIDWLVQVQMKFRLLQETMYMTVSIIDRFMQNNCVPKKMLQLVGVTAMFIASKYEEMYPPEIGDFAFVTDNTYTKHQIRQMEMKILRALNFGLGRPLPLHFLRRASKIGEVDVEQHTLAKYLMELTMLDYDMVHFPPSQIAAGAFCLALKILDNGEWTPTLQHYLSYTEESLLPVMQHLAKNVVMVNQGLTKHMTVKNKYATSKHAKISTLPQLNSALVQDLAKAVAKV
cdk4/cyclinD, sequence (P11802 whole entry, species assumed): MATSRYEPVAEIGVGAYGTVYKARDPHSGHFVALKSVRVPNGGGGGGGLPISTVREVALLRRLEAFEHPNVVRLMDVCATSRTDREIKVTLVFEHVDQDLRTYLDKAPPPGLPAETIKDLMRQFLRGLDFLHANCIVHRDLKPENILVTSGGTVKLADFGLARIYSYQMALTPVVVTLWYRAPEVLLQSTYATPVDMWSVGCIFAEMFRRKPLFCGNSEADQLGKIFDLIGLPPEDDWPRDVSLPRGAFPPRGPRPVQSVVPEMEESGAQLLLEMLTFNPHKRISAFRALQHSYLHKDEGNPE
cdk4/cyclinD, sequence (P24385 whole entry partner, species assumed): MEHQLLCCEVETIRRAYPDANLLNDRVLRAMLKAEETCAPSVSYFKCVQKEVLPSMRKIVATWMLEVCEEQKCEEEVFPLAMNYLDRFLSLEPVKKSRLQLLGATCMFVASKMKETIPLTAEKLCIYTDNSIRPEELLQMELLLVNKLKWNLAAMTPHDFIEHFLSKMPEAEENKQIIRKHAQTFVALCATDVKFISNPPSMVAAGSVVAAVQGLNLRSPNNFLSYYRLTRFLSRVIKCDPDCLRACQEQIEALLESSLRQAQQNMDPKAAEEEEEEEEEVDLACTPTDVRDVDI

As for `Cc1cc(Nc2ncc3ccc(NC(=O)NC(C)(C)C)nc3n2)ccc1F` [Compound 46, 1-tert-Butyl-3-[2-(4-fluoro-3-methyl-phenylamino)-pyrido[2,3-d]pyrimidin-7-yl]-urea], the melting point was 230 °C (dec.). Further, the IC50 on cdk1/cyclinB turned out to be 0.075 µM. On cdk2/cyclinE, the IC50 was found to be 0.3 µM. At cdk4/cyclinD, the IC50 is > 5 µM. The inhibition at 50 µM in data set [1] worked out at 17.5%. The inhibition at 50 µM in data set [2] turned out to be 19.5%.

Regarding `Cc1cc2cnc(Nc3ccc(N4C[C@@H](C)N[C@@H](C)C4)cc3)nc2nc1NC(=O)NC(C)(C)C` [Compound 117, 1-tert-Butyl-3-{2-[4(cis-3,5-dimethyl-piperazin-1-yl)-phenylamino]-6-methyl-pyrido[2,3-d]pyrimidin-7-yl}-urea], the IC50 at cdk1/cyclinB was > 5 µM; at cdk2/cyclinA, > 5 µM; at cdk2/cyclinE it was 4 µM; at cdk4/cyclinD, 0.076 µM; in data set [1], 0.081 µM; in data set [2] it was 0.061 µM.

Consider `CC(C)(C)OC(=O)N1CCN(c2ccc(Nc3ncc4ccc(NC(=O)NC5CCCCC5)nc4n3)cc2)CC1` [Compound 80], for which the melting point is 241 °C (dec.). Further, the IC50 on cdk1/cyclinB amounted to 0.461 µM. The IC50 on cdk2/cyclinA was determined as 0.092 µM. Further, the IC50 at cdk2/cyclinE was 0.23 µM. Further, the IC50 on cdk4/cyclinD was found to be 0.46 µM. The inhibition at 50 µM in data set [2] amounted to 18.6%.

Turning to `CC(C)(C)NC(=O)Nc1ccc2cnc(Nc3ccccc3)nc2n1` [Compound 45, 1-tert-Butyl-3-(2-phenylamino-pyrido[2,3-d]pyrimidin-7-yl)-urea], the melting point is 227 °C (dec.). For the same compound, the IC50 at cdk1/cyclinB turned out to be 0.552 µM. The IC50 at cdk2/cyclinA came out at 0.054 µM. Further, the IC50 at cdk2/cyclinE worked out at 0.11 µM. Besides, the IC50 on cdk4/cyclinD was determined as 0.045 µM. Besides, the inhibition at 50 µM in data set [1] came out at 21.9%. Also, in data set [2], the inhibition at 50 µM turned out to be 67.4%.

For `O=C(Nc1nc2nc(Nc3ccc(N4CCNCC4)cc3)ncc2cc1Br)NC1CCCCC1` [Compound 55, 1-[6-Bromo-2-(4-piperazin-1-yl-phenylamino)-pyrido[2,3-d]pyrimidin-7-yl]-3-cyclohexyl-urea], the melting point was 195 °C (dec.). Also, the IC50 on cdk1/cyclinB is > 5 µM. Moreover, the IC50 on cdk2/cyclinA was > 5 µM. Moreover, the IC50 on cdk2/cyclinE was > 5 µM. On cdk4/cyclinD, the IC50 was 0.3 µM. For the same compound, the IC50 in data set [1] was found to be 0.033 µM. Besides, the IC50 in data set [2] was found to be 0.151 µM.

Turning to `CC(C)(C)NC(=O)Nc1ccc2cnc(Nc3ccc(N4CCNCC4)cc3)nc2n1` [Compound 1, 1-tert-Butyl-3-[2-(4-piperazin-1-yl-phenylamino)-pyrido[2,3-d]pyrimidin-7-yl]-urea], the IC50 is 0.219 µM at cdk1/cyclinB; 0.06 µM at cdk2/cyclinA; 0.13 µM on cdk2/cyclinE; 0.006 µM at cdk4/cyclinD; 0.593 µM in data set [1]. For the same compound, the inhibition at 50 µM was 94.4% in data set [1] and 93.7% in data set [2].

`Cc1cc(Nc2ncc3ccc(NC(=O)Nc4ccc(Cl)cc4)nc3n2)ccc1F` [Compound 47, 1-(4-Chloro-phenyl)-3-[2-(4-fluoro-3-methyl-phenylamino)-pyrido[2,3-d]pyrimidin-7-yl]-urea]: the melting point is > 250 °C. The IC50 on cdk1/cyclinB was > 5 µM. Further, the IC50 on cdk2/cyclinA is > 5 µM. The IC50 at cdk2/cyclinE was > 5 µM. Further, the IC50 on cdk4/cyclinD was > 5 µM. Also, the inhibition at 50 µM in data set [2] worked out at 10.5%.

Consider `CN(C(=O)NC1CCCCC1)c1ccc2cnc(Nc3ccc(N4CCNCC4)cc3)nc2n1` [Compound 70, 3-Cyclohexyl-1-methyl-1-[2-(4-piperazin-1-yl-phenylamino)-pyrido[2,3-d]pyrimidin-7-yl]-urea], for which the melting point was 169 to 175 °C. The IC50 at cdk1/cyclinB amounted to 1.45 µM. Further, the IC50 on cdk2/cyclinA is 0.697 µM. The IC50 on cdk2/cyclinE was 0.53 µM. Further, the IC50 on cdk4/cyclinD is 0.017 µM. Moreover, the IC50 in data set [1] came out at 0.536 µM. Moreover, in data set [2], the IC50 is 1.15 µM.

For `O=C(Nc1nc2nc(Nc3ccc(N4CCNCC4)cc3)ncc2cc1F)NC1CCCCC1` [Compound 11, 1-Cyclohexyl-3-[6-fluoro-2-(4-piperazin-1-yl-phenylamino)-pyrido[2,3-d]pyrimidin-7-yl]-urea], the IC50 is 0.159 µM at cdk1/cyclinB; 0.092 µM at cdk2/cyclinA; 0.125 µM at cdk2/cyclinE; 0.011 µM on cdk4/cyclinD; 0.131 µM in data set [1]; 0.284 µM in data set [2].

Values taken from patent US7053070B2, “Pyrido[2,3-d]pyrimidine-2,7-diamine kinase inhibitors” (Warner-Lambert Company, priority 2000, dated 2006).
